Results taken from patent publication US20190365728A1, “PHARMACEUTICAL COMPOSITION COMPRISING BETAHISTINE” (Otolanum AG, priority 2017, published 2019).
Marks after values point to notes of the source that are not given here.

What was measured:
[1] = Minor metabolites HEP and AEP in human plasma (LC-MS/MS); format: in vivo
Method: For the first time it was also possible to determine the two minor betahistine metabolites aminoethylpyridine (AEP) and hydroxyethylpyridine (HEP) in human plasma.
HEP and AEP concentrations were determined using liquid chromatographic tandem mass spectrometry (SCIEX API 4000) with a validated method. HEP-d4 and AEP-d4 dihydrochloride served as internal standards. […] The limit of quantitation was 1 ng/mL in case of HEP and 10 pg/mL in case of AEP.

[2] = Single-dose and 14-day repeat-dose toxicology/toxicokinetic study of intranasal betahistine in beagle dogs; format: in vivo
Method: Sample analysis was conducted using reversed phase chromatography.

[3] = Pharmacokinetic profile in beagle dogs after single oral, intranasal and intravenous betahistine; format: in vivo
Method: In this study, the pharmacokinetic profile of betahistine was evaluated after a single dose administration of betahistine in male and female beagle dogs (age 5-7 months; weight of 5-11 kg, within a range of 3 kg for each sex) for three routes of administration: oral, intranasal, and intravenous.
On Day 1 of the study, betahistine (BH) was delivered orally at a dose of 12 mg/kg, 24 mg/kg, or 48 mg/kg. Each treatment group comprised 8 animals (4 males and 4 females). For pharmacokinetic assessment, plasma samples were collected prior to dosing, and then at 5, 10, 20 and 30 min, 1, 2, 3, 6, 24 hours after dosing.
On Day 8 of the study, the animals that received oral BH at a dose of 12 mg/kg were administered the test betahistine composition intranasally at a dose of 40 mg betahistine dihydrochloride; the animals that received oral BH at a dose of 24 mg/kg were administered the test betahistine composition intranasally at a dose of 80 mg betahistine dihydrochloride; and the animals that received oral BH at a dose of 48 mg/kg were administered the test betahistine composition intranasally at a dose of 120 mg betahistine dihydrochloride. The test betahistine composition was delivered intranasally in a single dose via an Aptar nasal spray pump device at a total dose level of 40, 80 and 120 mg of betahistine dihydrochloride. Plasma samples were collected prior to dosing, and then at 5, 10, 20 and 30 min, 1, 2, 3, 6, 24 hours after dosing.
On Day 15 of the study, the animals that received oral BH at a dose of 12 mg/kg and the test betahistine composition intranasally at a dose of 40 mg betahistine dihydrochloride were administered a bolus intravenous injection of betahistine at a dose of 0.44 mg/kg. Plasma samples were collected prior to dosing, and then at 5, 10, 20 and 30 min, 1, 2, 3, 6, 24 hours after dosing.
Betahistine 13CD3 dihydrochloride and 2-pyridylacetic acid-D4 hydrochloride were used as respective internal standards. The calibration range for betahistine was 0.05-250 ng/mL and for 2-PAA 2.00-3000 ng/mL using a plasma sample volume of 0.50 mL.
For determination of betahistine, the method involved liquid-liquid extraction, for 2-PAA, the method involved protein precipitation. Plasma samples were prepared for betahistine by extraction under basic conditions with an organic solvent, then the organic phase was dried, reconstituted and transferred for LC/MS-MS analysis. […] Sample analysis was performed using reversed phase chromatography.

[4] = Relative bioavailability of intranasal vs oral betahistine in humans (Example 3 vs Barak et al.); format: in vivo; conditions: human
Method: For the calculation of the relative bioavailability of intranasal betahistine compared to peroral betahistine, the area under the concentration-time curve (AUC) determined in Example 3 was compared to the AUC determined in a study with oral betahistine in healthy volunteers described in Barak et al. (Journal of Psychopharmacology, 2016, Vol. 30(3) 237-241). In brief, in this study, forty-eight healthy women were recruited and randomized to receive per os (i.e. orally) either betahistine 144 mg/day (48 mg t.i.d.) or matching placebo for 4 weeks. Their mean weight was 60.2 kg in the active-treated group (n=24) and 59.8 kg in the placebo group (n=24). Study medication (betahistine or matching placebo) was administered at least 30 minutes prior to eating. On Day 8, blood samples of 6 mL each were collected at 8 am, and 30, 60, 150 and 300 minutes thereafter. Plasma concentrations of betahistine and its metabolite 2-PAA were determined by high-performance liquid chromatography.

clinical = conditions: human
Method: The safety and pharmacokinetic profile of intranasal betahistine with single and multiple dosing was evaluated in a single-site randomized, placebo-controlled Phase I dose-escalation trial. 72 healthy male and female subjects aged between 18 and 60 years and with a BMI of 18.5 to 30 kg/m^2 were enrolled. In one group, the subjects received single dose intranasal betahistine in four dose cohorts of 10, 20, 40 or 60 mg or multiple dose intranasal betahistine (three times daily for 3 days) in four dose cohorts of 5, 10, 20 or 40 mg (double blind). Subjects received first the single dose and then, following a wash-out period, the multiple doses with the exception of the 5 mg and 60 mg doses which were tested only under one dose regimen. For reference purposes, another group of subjects received single dose oral betahistine in four dose cohorts at 48, […], 192 or 384 mg (single blind).
With each actuation of the nasal spray, 100 μL were delivered (1 actuation at 50 mg/mL for 5 mg and at 200 mg/mL for 20 mg, respectively; 2 actuations at 50 mg/mL for 10 mg and at 200 mg/mL for 40 mg, respectively, into each nostril; 3 actuations at 200 mg/mL for 60 mg with 2 into one nostril and 1 into the other) while the subject was in an upright position.
Serial blood samples were collected at various time points, starting at pre-dose and over a maximum of 72 hours following dosing.
All plasma samples were stored at −95 to −65° C. until all samples had been collected and sent in two separate shipments for analysis.

[5] = Single ascending-dose clinical trial of intranasal betahistine in healthy volunteers: safety and plasma pharmacokinetics; conditions: human; for tmax: median (range)
Method: The safety and pharmacokinetic profile of intranasal betahistine was further evaluated in a double-blind, randomized, placebo-controlled, single ascending-dose clinical trial involving a total of 32 healthy male and female volunteers. The main inclusion criteria were that subjects had to be aged 18-45 years and show a body mass index within the range of 18-30 kg/m^2. Subjects were required to fast for 8 hours prior to study drug administration and for 2 hours post-dose.
The betahistine was supplied as a 50 and 200 mg/mL solution in a HDPE bottle and spray pump pack (Aptar Classic Line) that delivers an accurate 100 μL per actuation. The study drug was delivered into the right nostril of subjects while they were in a supine position. For the 5 and 20 mg doses, one application of 50 and 200 mg/mL, respectively, was needed, whereas for the 10 and 40 mg doses, two applications of 50 and 200 mg/mL were required.
Serial blood samples were collected through 24 hours, following dosing on Day 1, at Day 4 and Day 7 to determine concentrations of betahistine and its main metabolite, 2-PAA in plasma. Plasma samples were assayed for BH content using validated procedures and methods. Blood samples (6 mL) were collected into tubes containing K2EDTA and were centrifuged at approximately 2000 g for 10 minutes at +4° C. and the resultant plasma transferred into 2 clean, labelled 2 mL cryovials. All plasma samples were stored at −70° C. or below until all samples had been collected and sent as a single batch for analysis. Aliquot 1 and 2 were sent as separate shipments. Concentrations were determined using liquid chromatographic tandem mass spectrometry (LC-MS/MS; SCIEX API 5000 for betahistine and SCIEX API 4000 for 2-PAA) with a validated method. Betahistine-^13CD3 dihydrochloride and 2-PAA-D4 hydrochloride served as internal standards. The standard calibration range—using a plasma sample volume of 0.2 and 0.1 mL, respectively—for betahistine was 10 to 800 pg/mL and for 2-PAA it was 2 to 2000 ng/mL. The limit of quantitation was 10 pg/mL for betahistine and 2.0 ng/mL for 2-PAA.
In case of betahistine, the method involved a liquid-liquid extraction; in case of 2-PAA it involved protein precipitation. For betahistine, plasma samples were extracted under basic conditions with an organic solvent; the organic phase was dried and reconstituted in reconstitution solvent. Approximately 0.120 mL of the aqueous layer was transferred into polypropylene vials for LC-MS/MS analysis. For 2-PAA plasma samples were precipitated with a mixture of organic solvents, supernatant was diluted and 0.120 mL was transferred into polypropylene vials for LC-MS/MS analysis. Sample analysis was conducted using reversed phase chromatography.
For each subject who completed the study, plasma concentration-time data of betahistine and 2-PAA were used for the calculation of the following pharmacokinetic parameters:
Dose normalized parameters Cmax/Dose and AUC/Dose were also calculated.

[6] = metabolite of betahistine, background statement; cited from earlier work

Q: Which median tmax ([1]; in vivo) does the source give for `OCCc1ccccn1` [HEP, hydroxyethylpyridine] here?
A: 15 min

Q: With `NCCc1ccccn1` [AEP, aminoethylpyridine] as the molecule, how does the plasma concentration ([1]; AEP, human, intranasal betahistine 60 mg) read?
A: barely detectable

Q: Which tolerability ([2]; beagle dogs, intranasal, single dose 4-80 mg and 14-day repeat dose 12-240 mg/day) does the source give for `CNCCc1ccccn1` [betahistine] here?
A: well tolerated

Q: And the “body weights, clinical pathology and gross necropsy findings” value ([2]; both, beagle, dog, in vivo)?
A: unremarkable

Q: And the microscopic findings ([2]; both, beagle, dog, in vivo)?
A: No adverse treatment-related microscopic findings

Q: And the “decline of plasma concentration” value ([2]; both, beagle, dog, in vivo, 1 h)?
A: more than 90%

Q: And the salivation ([3]; both, beagle, dog, in vivo)?
A: noted in most animals

Q: And the “sneezing, animals affected” value ([3]; both, beagle, dog, in vivo)?
A: 2/8

Q: What about the tolerability ([3]; dogs, single intranasal 40-120 mg) of the same molecule?
A: well tolerated

Q: What about the Cmax ([3]; female, beagle, dog, in vivo, iv, 0.44 mg/kg) of the same molecule?
A: 4.37 ± 8.84 ng/mL

Q: And the “relative bioavailability of oral vs. intranasal administration” value ([4]; Barak et al. oral vs Example 3 intranasal)?
A: approximately 2.4%

Q: What about the “bioavailability intranasal relative to oral” value ([4]; Example 3 single intranasal 5-40 mg vs Barak et al. oral 48 mg) of the same molecule?
A: 20-40 times

Q: What about the “Rel. Bioavail. intranasal relative to oral” value ([4]; intranasal 40 mg vs oral 48 mg (Barak et al.)) of the same molecule?
A: 41.1

Q: And the apparent half-life (clinical; both, in vivo)?
A: less than 1 h

Q: And the “exposure AUC0-6 unadjusted for dose, intranasal vs oral 48 mg” value (clinical; both, in vivo)?
A: 5-29 fold

Q: And the “nasal pain, share of administrations” value (clinical; both, in vivo)?
A: 4%

Q: What about the “post-nasal drip, share of administrations” value (clinical; both, in vivo) of the same molecule?
A: 5%

Q: What about the “runny nose, share of administrations” value (clinical; both, in vivo) of the same molecule?
A: 6%

Q: And the “time of maximum concentrations” value (clinical; both, in vivo)?
A: 5 to 20 min

Q: What about the accumulation over time (clinical; both, in vivo, 3 days) of the same molecule?
A: No accumulation

Q: And the “time of maximum concentrations” value (clinical; both, in vivo, po)?
A: 15 to 30 min

Q: What about the tmax (clinical; both, in vivo, tmax, Median (range)) of the same molecule?
A: 15 min

Q: What about the “dose up to which safety and tolerability could be shown” value (clinical; intranasal multiple dosing three times daily over three days) of the same molecule?
A: up to 40 mg

Q: What about the “dose up to which safety and tolerability could be shown” value (clinical; intranasal single doses) of the same molecule?
A: up to 60 mg

Q: And the “peak concentration in plasma” value ([5]; betahistine, single intranasal 20 mg)?
A: 4.1 ng/mL

Q: What about the tmax ([5]; single intranasal 5 mg) of the same molecule?
A: 0.208 (0.08-0.33) hr

Q: What about the t1/2 ([5]; single intranasal 10 mg, mean, n=3) of the same molecule?
A: 0.883 ^a hr

Q: And the tmax ([5]; single intranasal 10 mg)?
A: 0.167 (0.08-0.17) hr

Q: What about the tmax ([5]; single intranasal 40 mg) of the same molecule?
A: 0.125 (0.08-0.27) hr

Q: With `O=C(O)Cc1ccccn1` [Variant 2-PAA, 2-pyridylacetic acid] as the molecule, how does the last measurable values ([2]; both, beagle, dog, in vivo) read?
A: 24 hours post-dose

Q: And the “Tmax, median (min-max)” value ([3]; male, beagle, dog, in vivo)?
A: 0.13 (0.08-0.33) hr

Q: And the pharmacological activity [6]?
A: no pharmacological activity
